Test results: US6906098B2, “Mixed steroidal 1,2,4,5-tetraoxane compounds and methods of making and using thereof” (priority 2002, dated 2005)
In brackets after ≈: the same amount, converted by molar mass. Several values for one entry are separate records, joined by “and”; a condition that tells them apart may be missing. Equal entries are not always repeated. Where two headings read alike, the source gives them in different places.

Experiments:
[1] = tested on: VERO cells
[2] = tested on: VERO cells; assay: cells; settings: Chlorocebus sabaeus, Table 5
[3] = in vitro; settings: African green monkey, Cytotoxcity (IC50)
[4] = tested on: Plasmodium falciparum chloroquine-susceptible strain D6; assay: In vitro antimalarial drug susceptibility assay (radiolabeled hypoxanthine incorporation), strain D6; type: cell-based; settings: for Strain D6 IC50: growth inhibition, chloroquine-susceptible strain D6, 66 h incubation; for IC50: Plasmodium falciparum, D6, 66 h, read-out: Strain D6 IC50, growth inhibition, chloroquine-susceptible strain D6, 66 h incubation
[5] = tested on: D6 and W2 P. falciparum clones; type: cell-based, Plasmodium falciparum; settings: for Resistance Index: IC50 (W2)/IC50 (D6) ratio; for times more active than bis(1,1-dioxy-2-methylcyclohexane): antimalarial activity versus literature tetraoxane
[6] = tested on: Mycobacterium tuberculosis H37Rv (ATCC 27294); assay: Primary screen, Microplate Alamar Blue Assay (MABA), percent inhibition; type: cell-based; settings: Mycobacterium tuberculosis, primary screening at 6.25 μg/ml
Method in brief: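 Single-concentration screen at 6.25 μg/ml (or molar equivalent of the heaviest congener in a series) against H37Rv grown in BACTEC 12B medium. Growth read by Microplate Alamar Blue Assay, reported as percent inhibition.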

[7] = tested on: M. tuberculosis H37Rv; assay: Minimum inhibitory concentration (MIC) in the MABA; type: cell-based, Mycobacterium tuberculosis; settings: Mycobacterium tuberculosis, H37RV
Method in brief: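 Run under the NIAID TAACF screening program against M. tuberculosis by fluorescence read-out. MIC taken as the lowest concentration giving 90% reduction in fluorescence relative to controls.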

[8] = tested on: Plasmodium falciparum chloroquine-resistant strain W2; assay: microbe, parasite or virus in culture; type: cell-based; settings: for Strain W2 IC50: growth inhibition, chloroquine-resistant strain W2, 66 h incubation; for IC50: Plasmodium falciparum, W2, 66 h, read-out: Strain W2 IC50, growth inhibition, chloroquine-resistant strain W2, 66 h incubation
[9] = tested on: lung NCI-H460, breast MCF7, CNS SF-268; assay: 3-cell line one dose primary anticancer assay (NCI); type: cell-based, human; settings: growth percentage after 48 hours, at 100 μM
Procedure: In preliminary tests, four compounds (1B14a, 1C44, 1C45, and 1C46) were chosen by NIH-NCI for in vitro screening. See Drug discovery and development program, National Cancer Institute, Bethesda, (NCI), http://dtp.nci.nih.gov. All tetraoxanes were evaluated in the 3-cell line (lung—NCI-H460, breast—MCF7, CNS-SF-268) one dose primary anticancer assay: growth percentage after 48 hours, at 100 μM concentration of tested compound. Two compounds were eliminated at this step (1B14a and 1C46), while the acid 1C44 and primary amide 1C45 were evaluated against the full panel of 60 human tumor cell lines starting with 10^−4 M concentration of investigated compounds.

[10] = tested on: M. avium strains 100, 101, 108, 109, 116; assay: M. avium MIC, Microtiter; type: cell-based, Mycobacterium avium
[11] = ratio of IC50 in VERO cells to MIC (M. tuberculosis H37Rv)
[12] = Table 3, VERO cell line, 72 hours exposure
[13] = Table 3, H37Rv, read-out: Inhibition (%)
[14] = Table 5, Alamar assay, read-out: % Inhib
[15] = Table 5, Alamar assay, M. tuberculosis H37Rv, read-out: MIC

Row | Compound | SI (selectivity index) [1, 11] | IC50 [2] [µg/mL] | IC50 [3, 12] | Resistance Index [5] | inhibition at 6.25 µg/mL [6, 13] [%] | inhibition at 6.25 µg/mL [6, 14] [%] | MIC ([7]; Table 3, H37Rv, read-out: MIC) | MIC [7, 15] [µg/mL] | Strain D6 IC50 [4] [ng/mL] | Strain W2 IC50 [8] [ng/mL] | further results
1 | CC(=O)O[C@H]1CC2C(C3CC[C@H](C(C)CCC(N)=O)[C@]31C)[C@H](OC(C)=O)C[C@@H]1CC3(CC[C@]21C)OOC1(CCC(C)CC1)OO3 (stereo partly drawn) [17/1C26, 7α,12α-Diacetoxy-5β-cholan-24-amide-3-spiro-6′-(1′,2′,4′,5′-tetraoxacyclohexane)-3′-spiro-1″-((4″R)-methyl)cyclohexane] | 1.1 | 3.49 (≈ 5.51 µM) | 3.49 µg/mL and 5.51 µM | 0.50 | 99 | 99 | 3.13 µg/mL and 4.94 µM | 3.13 (≈ 4.94 µM) | – | – | SI (IC50 (Vero)/IC50 (D6 or W2)) ([1]; cytotoxicity in Vero cells versus antimalarial activity): 9 500; Strain D6 IC50 ([4]; listed as 17): 0.74 ng/mL; Resistance Index ([5]; listed as 17): 0.50; times more active than parent methyl ester 8g ([5]; antimalarial activity): ca. 9 times; times as active as arteether ([5]; antimalarial activity in vitro): 2.4 times; times more active than artelinic acid ([5]; antimalarial activity in vitro): ca. 6 times; Strain W2 IC50 ([8]; listed as 17): 0.37 ng/mL
2 | CNC(=O)CCC(C)[C@H]1CCC2C3C(C[C@H](OC(C)=O)[C@@]21C)[C@@]1(C)CCC2(C[C@H]1C[C@H]3OC(C)=O)OOC1(CCC(c3ccccc3)CC1)OO2 (single isomer, unassigned) [Compound 1C46, N-Methyl-7α,12α-Diacetoxy-5β-cholan-24-amide-3-spiro-6′-(1′,2′,4′,5′-tetraoxacyclohexane)-3′-spiro-1″-((4″R or S)-phenyl)cyclohexane] | – | – | – | 0.79 | – | 71 | – | > 6.25 | 8.83 | 6.96 | inhibition at 6.25 µg/mL ([6]; Table 3, H37Rv): 71%; outcome of one dose primary anticancer assay [9]: eliminated; MIC ([7]; Table 3): 6.25 µg/mL (≈ 8.8 µM)
3 | CC(=O)O[C@H]1CC2C(C3CC[C@H](C(C)CCC(N)=O)[C@]31C)[C@H](OC(C)=O)C[C@@H]1CC3(CC[C@]21C)OOC1(CCCCC1C)OO3 (stereo partly drawn) [13/1C22, 7α,12α-Diacetoxy-5β-cholan-24-amide-3-spiro-6′-(1′,2′,4′,5′-tetraoxacyclohexane)-3′-spiro-1″-(2″-methyl)cyclohexane] | – | – | – | 0.64 | – | 100 | – | 0.2 (≈ 0.316 µM) | – | – | MIC ([10]; M. avium strain 101, MIC dilution 0.25-32): >32 µg/mL; MIC ([10]; M. avium strain 108, MIC dilution 0.25-32): >32 µg/mL; MIC ([10]; M. avium strain 109, MIC dilution 0.25-32): >32 µg/mL; MIC ([10]; M. avium strain 116, MIC dilution 0.25-32): >32 µg/mL; MIC ([10]; Mycobacterium avium, M. avium strain 100, MIC dilution 0.25-32, read-out: MIC): > 32 µg/mL; IC50 [4]: 0.011 µg/mL (≈ 0.0173 µM); times more active than bis(1,1-dioxy-2-methylcyclohexane) [5]: ca. 3.5 times; IC50 [8]: 0.00705 µg/mL (≈ 0.0111 µM)
4 | CCCNC(=O)CCC(C)[C@H]1CCC2C3C(C[C@H](OC(C)=O)[C@@]21C)[C@@]1(C)CCC2(C[C@H]1C[C@H]3OC(C)=O)OOC1(CCC(C)CC1)OO2 (stereo partly drawn) [20/1C29, N-(n-Propyl)-7α,12α-diacetoxy-5β-cholan-24-amide-3-spiro-6′-(1′,2′,4′,5′-tetraoxacyclohexane)-3′-spiro-1″-((4″R)-methyl)cyclohexane] | 1.3 | 8.34 (≈ 12.3 µM) | 8.34 µg/mL and 12.3 µM | 1.18 | 94 | – | 6.25 µg/mL and 9.25 µM | 6.25 (≈ 9.25 µM) | 2.18 | 2.58 | –
5 | CNC(=O)CCC(C)[C@H]1CCC2C3C(C[C@H](OC(C)=O)[C@@]21C)[C@@]1(C)CCC2(C[C@H]1C[C@H]3OC(C)=O)OOC1(CCC(C)CC1)OO2 (stereo partly drawn) [18/1C27, N-Methyl-7α,12α-diacetoxy-5β-cholan-24-amide-3-spiro-6′-(1′,2′,4′,5′-tetraoxacyclohexane)-3′-spiro-1″-((4″R)-methyl)cyclohexane] | 0.91 | – | 5.69 µg/mL and 8.78 µM | 0.61 | 98 | 98 | 6.25 µg/mL and 9.65 µM | 6.25 (≈ 9.65 µM) | 3.86 | 2.34 | –
6 | COC(=O)CCC(C)[C@H]1CCC2C3C(C[C@H](OC(C)=O)[C@@]21C)[C@@]1(C)CCC2(C[C@H]1C[C@H]3OC(C)=O)OOC1(CCC(c3ccccc3)CC1)OO2 (single isomer, unassigned) [Compound 1B14a, Methyl 7α,12α-diacetoxy-5β-cholan-24-oate-3-spiro-6′-(1′,2′,4′,5′-tetraoxacyclohexane)-3′-spiro-1″-((4″R or S)- and (4″S or R)-phenyl)cyclohexane] | – | – | – | 0.93 | 37 | 37 | > 6.25 µg/mL | > 6.25 | 12.56 | 11.72 | outcome of one dose primary anticancer assay [9]: eliminated
7 | CCNC(=O)CCC(C)[C@H]1CCC2C3C(C[C@H](OC(C)=O)[C@@]21C)[C@@]1(C)CCC2(C[C@H]1C[C@H]3OC(C)=O)OOC1(CCC(C)CC1)OO2 (stereo partly drawn) [19/1C28, N-Ethyl-7α,12α-diacetoxy-5β-cholan-24-amide-3-spiro-6′-(1′,2′,4′,5′-tetraoxacyclohexane)-3″-spiro-1″-((4″R)-methyl)cyclohexane] | 1.7 | 5.37 (≈ 8.11 µM) | 5.37 µg/mL and 8.11 µM | 0.68 | 98 | – | 3.13 µg/mL and 4.73 µM | 3.13 (≈ 4.73 µM) | 3.84 | 2.60 | –
8 | COC(=O)CCC(C)[C@H]1CCC2C3C(C[C@H](OC(C)=O)[C@@]21C)[C@@]1(C)CCC2(C[C@H]1C[C@H]3OC(C)=O)OOC1(CCCCC1C)OO2 (stereo partly drawn) [8d/1B06, Methyl 7α,12α-Diacetoxy-5β-cholan-24-oate-3-spiro-6′-(1′,2′,4′,5′-tetraoxacyclohexane)-3′-spiro-1″-(2″-methyl)cyclohexane] | – | – | – | 0.58 | – | 29 | – | > 6.25 | – | – | IC50 [4]: 0.0175 µg/mL (≈ 0.027 µM); times more active than bis(1,1-dioxy-2-methylcyclohexane) [5]: about 2 times; melting point: 204 to 207 °C; IC50 [8]: 0.0102 µg/mL (≈ 0.0156 µM)
9 | CO[C@H]1/C=C/O[C@@]2(C)Oc3c(C)c(O)c4c(O)c(c(/C=N/N5CCN(C)CC5)c(O)c4c3C2=O)NC(=O)/C(C)=C\C=C\[C@H](C)[C@H](O)[C@@H](C)[C@@H](O)[C@@H](C)[C@H](OC(C)=O)[C@@H]1C [Rifampin, reference compound] | – | > 100 | – | – | – | – | 0.12 µg/mL and 0.15 µM | – | – | – | SI (selectivity index) [1]: > 800; IC50 [3]: 111 µg/mL and 134 µM
10 | CCCNC(=O)CC[C@@H](C)[C@H]1CC[C@H]2[C@@H]3[C@H](OC(C)=O)C[C@@H]4CC(OO)(OO)CC[C@]4(C)[C@H]3C[C@H](OC(C)=O)[C@]12C | – | – | – | – | – | – | – | – | – | – | melting point: 120 to 129 °C
11 | COC(=O)CCC(C)[C@H]1CCC2C3C(C[C@H](OC(C)=O)[C@@]21C)[C@@]1(C)CCC2(C[C@H]1C[C@H]3OC(C)=O)OOC1(OO2)C(C)CCCC1C (stereo partly drawn) [8e/1B07, Methyl 7α,12α-diacetoxy-5β-cholan-24-oate-3-spiro-6′-(1′,2′,4′,5′-tetraoxacyclohexane)-3′-spiro-1″-(2″,6″-dimethyl)cyclohexane] | – | – | – | 11.45 | – | 0 | – | > 6.25 | – | – | IC50 [4]: 0.0207 µg/mL (≈ 0.0312 µM); antimalarial activity in words ([5]; D6 and W2 clones, Table 2): inactive; melting point: 213 to 215 °C; IC50 [8]: 0.237 µg/mL (≈ 0.357 µM)
